Test results published in the supplement of paper PMC11208160.

assay: recombinant UMI read abundance after kanamycin selection (control-corrected) (log10(CPM+1)); higher = more efficient recombination; extreme values may be limits of the assay; sequences stand for … in AGTGCAGAGAAAATCGGCCAGTTTTCTCTGCCTGCAGTCCGCATGCCGTGGGACCCCTTGGGTTCTAACCTGTTGCCTAGATTTATGCAGCGGACTGCCTTTCTCCCAAAGTGATAAACCGG…AGGTTGGTTTCACT; site = the 11-nt donor
Outline: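 Sequencing read counts were converted to CPM, averaged over two replicates and scaled by control-derived factors. Results are given as log10(CPM+1). The reads covered the donor–target junction of recombinant UMIs from a pooled Escherichia coli screen of donor and donor-binding-loop pairs for the IS621 bridge recombinase.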
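Note: IS621 bridge recombinase in Escherichia coli cells against a fixed T5 target plasmid.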

In order of rising “recombinant UMI read abundance (log10)” value:
1. TTAAAGCCATGGACCGGTTTTCCCGGTAATCCGTATTTGGC (site TTAAAGCCTGC)  0
2. TTAATATCATGGACCGGTTTTCCCGGTAATCCGTATTTGAC (site CTAGTATCTGT)  0
3. TTAGAACCATGGACCGGTTTTCCCGGTAATCCGTATTTGCC (site TTAGAACCTGG)  0
4. TTAGGTACATGGACCGGTTTTCCCGGTAATCCGTATTTGAC (site CTAGGTACTGT)  0
5. TTAGGTACATGGACCGGTTTTCCCGGTAATCCGTATTTGAC (site GTAGGTACTGT)  0
6. TTAGTATCATGGACCGGTTTTCCCGGTAATCCGTATTTGTC (site CTAGTATCTGT)  0
7. TTATACCCATGGACCGGTTTTCCCGGTAATCCGTATTTGAG (site TTATACCCTCT)  0.00206
8. TGTTTAGCATGGACCGGTTTTCCCGGTAATCCGTATTTGGG (site TGTTTAGCTCC)  0.00333
9. TTAGCGGCATGGACCGGTTTTCCCGGTAATCCGTATTTGTG (site TTAGCCGCTCA)  0.00441
10. TTAGGACCATGGACCGGTTTTCCCGGTAATCCGTATTTGCA (site TTAGGACCTTG)  0.00659
11. TTAGGTACATGGACCGGTTTTCCCGGTAATCCGTATTTGAC (site ATAGGTACTGT)  0.0067
12. TGTTAGACATGGACCGGTTTTCCCGGTAATCCGTATTTGAG (site GGTTAGACTCT)  0.0119
13. TTAGCTGCATGGACCGGTTTTCCCGGTAATCCGTATTTGTT (site TTAGCTGCTTA)  0.0119
14. TTACCCACATGGACCGGTTTTCCCGGTAATCCGTATTTGTG (site TTACCCACTCA)  0.0352
15. TTAGCGGCATGGACCGGTTTTCCCGGTAATCCGTATTTGTG (site TTAGCTGCTCA)  0.0387
16. TGTTAGACATGGACCGGTTTTCCCGGTAATCCGTATTTGAG (site AGTTAGACTCT)  0.103
17. TTAGCTGCATGGACCGGTTTTCCCGGTAATCCGTATTTGTT (site TTAGCTGCTCA)  0.187
18. TGTTAGACATGGACCGGTTTTCCCGGTAATCCGTATTTGAG (site CGTTAGACTCT)  0.204
19. TGTTAGACATGGACCGGTTTTCCCGGTAATCCGTATTTGAG (site TGTTAGACTCT)  0.233
20. TTAGCGGCATGGACCGGTTTTCCCGGTAATCCGTATTTGTG (site TTAGCAGCTCA)  0.356
21. TTAGATCCATGGACCGGTTTTCCCGGTAATCCGTATTTGAG (site TTAGATCCTCT)  0.358
22. TTAGCTGCATGGACCGGTTTTCCCGGTAATCCGTATTTGTT (site TTAGCTGCTGA)  0.423
23. TTATCATCATGGACCGGTTTTCCCGGTAATCCGTATTTGCT (site CGATCATCTAG)  0.595
24. TTAGCAACATGGACCGGTTTTCCCGGTAATCCGTATTTGAG (site TTAGCAACTCT)  0.835
25. TGTTGAGCATGGACCGGTTTTCCCGGTAATCCGTATTTGCA (site TGTTGAGCTTG)  0.98
26. TGTTCCGCATGGACCGGTTTTCCCGGTAATCCGTATTTGTC (site TGTTCCGCTGA)  1.06
27. TTAGCTGCATGGACCGGTTTTCCCGGTAATCCGTATTTGTT (site TTAGCTGCTAA)  1.08
28. TTAATATCATGGACCGGTTTTCCCGGTAATCCGTATTTGAC (site TTAATATCTGT)  1.18
29. TTACTGTCATGGACCGGTTTTCCCGGTAATCCGTATTTGGA (site TTACTGTCTTC)  1.38
30. TTACGTGCATGGACCGGTTTTCCCGGTAATCCGTATTTGTA (site TTACGTGCTTA)  1.51
31. TTAGCGGCATGGACCGGTTTTCCCGGTAATCCGTATTTGTG (site TTAGCGGCTCA)  1.51
32. TTATAAGCATGGACCGGTTTTCCCGGTAATCCGTATTTGAG (site TTATAAGCTCT)  1.65
33. TTACGTTCATGGACCGGTTTTCCCGGTAATCCGTATTTGAG (site TTACGTTCTCT)  1.76
34. TTAGTATCATGGACCGGTTTTCCCGGTAATCCGTATTTGTC (site TTAGTATCTGA)  1.77
35. TTACGCTCATGGACCGGTTTTCCCGGTAATCCGTATTTGAT (site TTACGCTCTAT)  1.93
36. TTAGGTACATGGACCGGTTTTCCCGGTAATCCGTATTTGAC (site TTAGGTACTGT)  1.98
37. TTACAAACATGGACCGGTTTTCCCGGTAATCCGTATTTGAG (site TTACAAACTCT)  2.21
